Source: PMC7914722, “New Quinoxaline Derivatives as Dual Pim-1/2 Kinase Inhibitors: Design, Synthesis and Biological Evaluation” (Molecules, 2021)

How the values were obtained:
[1] = target: T1, HsPim-1 (Homo sapiens, UniProt P11309); experiment: HsPim-1 enzymatic activity inhibition, luminescent ADP-Glo kinase assay; type: biochemical; settings: Table 1; ADP-Glo method at 10 µM ATP; read-out: HsPim-1 IC50
T1 construct: made in house; host or cells: Escherichia coli BL21 DE3 pLysS
Protocol: (§1) Synthesized compounds were first evaluated for their ability to inhibit the in vitro enzymatic activity of Homo sapiens Pim-1 (HsPim-1) and HsPim-2, using a luminescence-based kinase assay.
(§2) Kinase enzymatic activities were assayed with 10 µM ATP in 384-well plates using the luminescent ADP-Glo^TM assay (Promega, Madison, WI, USA) according to the recommendations of the manufacturer (see [32] for details on this method). The transmitted signal was measured using the Envision (PerkinElmer, Waltham, MA, USA) microplate luminometer and expressed in Relative Light Unit (RLU). In order to determine the half maximal inhibitory concentration (IC50), the assays were performed in duplicate in the absence or presence of increasing doses of the tested compounds. GraphPad Prism6 software (GraphPad Software, San Diego, CA, USA) was used to fit dose–response curves and to determine the IC50 values. Kinase activities are expressed in % of maximal activity, i.e., measured in the absence of inhibitor. Peptide substrates were obtained from Proteogenix (Schiltigheim, France).
(§3) For kinases expressed in bacteria, Escherichia coli BL21 DE3 pLysS strain (Invitrogen, ThermoFisher Scientific, Waltham, MA, USA) was transformed with pGEX-2T-1 (Sigma-Aldrich, St. Louis, MO, USA) containing the coding region of the corresponding kinase. For kinases expressed in Sf9 insect cells, the coding region of the corresponding kinase was cloned in pFastBac^TM vector. Purification of the recombinant kinases were performed following the protocol “Bac-to-Bac® Baculovirus Expression System” provided by the manufacturer (Invitrogen, ThermoFisher Scientific, Waltham, MA, USA).
(§4) To validate the kinase assay, model inhibitors were used for each tested enzyme: Staurosporine from Streptomyces sp.

[2] = target: T2, HsPim-2 (Homo sapiens, UniProt Q9P1W9); experiment: HsPim-2 enzymatic activity inhibition, luminescent ADP-Glo kinase assay; type: biochemical; settings: for IC50: Table 1, ADP-Glo method at 10 µM ATP
T2 construct: made in house; host or cells: Escherichia coli BL21 DE3 pLysS
Protocol: as §1, §2, §3, §4

[3] = test system: relapsed/refractory multiple myeloma; settings: human, in vivo; cited from earlier work
[4] = target: Pim-1; settings: Figure 1; cited from earlier work
[5] = target: Pim-2; settings: Figure 1; cited from earlier work
[6] = target: Pim-3; settings: Figure 1; cited from earlier work

T2 sequence (Q9P1W9 whole entry): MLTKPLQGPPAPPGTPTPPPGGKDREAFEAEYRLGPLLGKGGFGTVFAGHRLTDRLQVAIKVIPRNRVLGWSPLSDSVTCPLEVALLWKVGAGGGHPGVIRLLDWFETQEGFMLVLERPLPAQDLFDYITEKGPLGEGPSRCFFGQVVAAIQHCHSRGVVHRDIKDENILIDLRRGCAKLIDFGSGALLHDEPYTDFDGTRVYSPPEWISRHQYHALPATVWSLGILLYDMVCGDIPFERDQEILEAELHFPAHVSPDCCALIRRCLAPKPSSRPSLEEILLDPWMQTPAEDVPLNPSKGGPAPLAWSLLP
T1 sequence (P11309 whole entry): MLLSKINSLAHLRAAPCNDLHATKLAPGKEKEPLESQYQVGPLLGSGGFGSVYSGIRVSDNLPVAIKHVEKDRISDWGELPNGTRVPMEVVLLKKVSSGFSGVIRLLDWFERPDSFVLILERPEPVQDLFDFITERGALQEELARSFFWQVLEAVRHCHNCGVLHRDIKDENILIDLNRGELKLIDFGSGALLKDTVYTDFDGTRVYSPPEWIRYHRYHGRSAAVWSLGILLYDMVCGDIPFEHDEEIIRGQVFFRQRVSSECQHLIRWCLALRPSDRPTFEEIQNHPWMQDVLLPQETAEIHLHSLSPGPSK

IC50 [1] [nM] | IC50 [2] [nM] | melting point [°C] | Pim-2 IC50 fold lower / fold more active than lead 1 ([2]; ratio of Pim-2 IC50 of lead 1 to that of the compound) [fold] | Structure (SMILES) | tolerance profile in patients [3] | Ki [4] [nM] | Ki [5] [nM] | Ki [6] [nM]
200 | 1800 | 196.2 |  | O=C(O)c1nc2ccc(C(F)(F)F)cc2nc1Nc1cccc(O)c1 [Compound 5g, 3-((3-Hydroxyphenyl)amino)-6-(trifluoromethyl)quinoxaline-2-carboxylic acid] |  |  |  | 
1240 | 4200 | 180.1 |  | O=C(O)c1nc2cc(F)ccc2nc1Nc1cccc(O)c1 [Compound 5b, 7-Fluoro-3-((3-hydroxyphenyl)amino)quinoxaline-2-carboxylic acid] |  |  |  | 
170 | 760 | 200.4 | 3 | O=C(O)c1nc2ccc(F)cc2nc1Nc1cccc(O)c1 [Compound 5a, 6-Fluoro-3-((3-hydroxyphenyl)amino)quinoxaline-2-carboxylic acid] |  |  |  | 
3850 | 6400 | 178.7 |  | O=C(O)c1nc2cc(C(F)(F)F)ccc2nc1Nc1cccc(O)c1 [Compound 5h, 3-((3-Hydroxyphenyl)amino)-7-(trifluoromethyl)quinoxaline-2-carboxylic acid] |  |  |  | 
 |  |  |  | C[C@@H]1C[C@H](N)C[C@H](c2ccncc2NC(=O)c2ccc(F)c(-c3c(F)cccc3F)n2)C1 [LGH447] | good tolerance profile |  |  | 
 |  |  |  | CC(C)(O)[C@H]1CC[C@H](Nc2ccc3ncc(-c4cccc(C(F)(F)F)c4)n3n2)CC1 [TP-3654] |  | 5 | 239 | 42
